# Assay results as given in patent publication US6780861B2, “Azabicyclic carbamates and their use as α-7 nicotinic acetylcholine receptor agonists” (Novartis AG, priority 2000, dated 2004).
# Counter-ions that a name gives are not always drawn.
row,melting point [°C],Structure (SMILES)
1,186 to 187,O=C(NC1CN2CCC1CC2)OCc1ccc2c(c1)OCO2 (centres unmarked) (as salt: hydrochloride)
2,211 to 212,COc1cc(COC(=O)NC2CN3CCC2CC3)cc(OC)c1OC (centres unmarked) (as salt: hydrochloride)
